In article PMC11206245 (Pharmaceuticals, 2024):
“Also recorded” adds a separate entry of the source. Where two headings read alike, the source gives them in different places.

Assay: Study A dose-escalation protocol: 17-AAG pharmacokinetics in plasma (HPLC)
Type: in vivo
Conditions: dogs; for AUC / Cmax / half-life: female, dog; for AUC: AUC0–8h; for half-life: read-out: t½ (converted)
Experimental: In Studies A and B, an intravenous catheter was placed in the cephalic vein of each animal’s right and left anterior limbs. […] Under both protocols, blood samples were centrifuged at 1500× g at 4 °C for 10 min.
For the mobile phase, acetonitrile (ACN, J.T.Baker®, Philadelphia, PA, USA) and water with 1% acetic acid (J.T.Baker®)were used. Briefly, aliquots of 200 µL of plasma or 100 µL of subcutaneous interstitial liquid were placed in a 1.5 mL microcentrifuge tube. Subsequently, 600 µL and 300 µL of ACN were added to all plasma and subcutaneous interstitial liquid samples, respectively. The mixture was vortexed for 30 s, followed by centrifugation at 3400× g for 10 min. Next, 500 µL of the plasma supernatant and 250 µL of the subcutaneous interstitial fluid were pipetted into a new vial. The method was validated in accordance with the International Council for Harmonization (ICH) technical requirements for the evaluation of medicinal products. […] No matrix interferences were observed. Two calibrated plasma curves of 17-AAG were validated with different injection volumes. […] Data acquisition and processing were performed using LabSolutions software (Version 5.3).
Cmax, half-life (t ½), distribution volume, and clearance were also determined. Data were analyzed in Excel and WinNonlin using a mono-compartmental model.

[1] = Study A, plasma, single IV dose 50 mg/m^2, mean ± SD
[2] = Study A, plasma, single IV dose 100 mg/m^2, mean ± SD
[3] = Study A, plasma, single IV dose 150 mg/m^2, mean ± SD
[4] = Study A, plasma, single IV dose 200 mg/m^2, mean ± SD
[5] = Study A, plasma, single IV dose 250 mg/m^2, mean ± SD
[6] = 50 mg/m2, Study A, plasma, single IV dose 50 mg/m^2, mean ± SD
[7] = 100 mg/m2, Study A, plasma, single IV dose 100 mg/m^2, mean ± SD
[8] = 150 mg/m2, Study A, plasma, single IV dose 150 mg/m^2, mean ± SD
[9] = 200 mg/m2, Study A, plasma, single IV dose 200 mg/m^2, mean ± SD
[10] = 250 mg/m2, Study A, plasma, single IV dose 250 mg/m^2, mean ± SD

C=CCNC1=C2C[C@@H](C)C[C@H](OC)[C@H](O)[C@@H](C)/C=C(\C)[C@H](OC(N)=O)[C@@H](OC)/C=C\C=C(/C)C(=O)NC(=CC1=O)C2=O [17-AAG, 17-(allylamino)-17-demethoxygeldanamycin]
Clearance from plasma, on average (Study A, average over doses 50–250 mg/m^2): 0.026 ± 0.010 L/h/m^2
Dose-proportionality of Cmax and AUC (Study A, plasma, IV doses 50–250 mg/m^2): linear correlation between doses ranging from 50 to 200 mg/m^2; also recorded: dose-proportionate between the 50 and 200 mg/m^2 doses
Clearance [1]: 0.04 ± 0.02 L/m^2/h
DV (distribution volume) [1]: 0.03 ± 0.02 L/m^2
Clearance [2]: 0.03 ± 0.01 L/m^2/h
DV (distribution volume) [2]: 0.02 ± 0.01 L/m^2
Clearance [3]: 0.02 ± 0.00 L/m^2/h
DV (distribution volume) [3]: 0.02 ± 0.00 L/m^2
Clearance [4]: 0.02 ± 0.00 L/m^2/h
DV (distribution volume) [4]: 0.02 ± 0.00 L/m^2
Clearance [5]: 0.03 ± 0.01 L/m^2/h
DV (distribution volume) [5]: 0.02 ± 0.00 L/m^2
maximum plasma concentration (Cmax), lower end of range (abstract, after single IV doses 50–250 mg/m^2): 1405 ± 686 ng/mL
AUC [6]: 1480 ± 695 ng·h/mL
Cmax (50 mg/m2, Study A, plasma, single IV dose 50 mg/m^2, mean ± SD, read-out: Cmax): 1410 ± 687 ng/mL
half-life [6]: 32.4 ± 1.8 min
AUC [7]: 4380 ± 1630 ng·h/mL
Cmax (100 mg/m2, Study A, plasma, single IV dose 100 mg/m^2, mean ± SD, read-out: Cmax): 3760 ± 1420 ng/mL
half-life [7]: 36.6 ± 4.8 min
AUC [8]: 7930 ± 1550 ng·h/mL
Cmax (150 mg/m2, Study A, plasma, single IV dose 150 mg/m^2, mean ± SD, read-out: Cmax): 6940 ± 1340 ng/mL
half-life [8]: 35.4 ± 2.4 min
AUC [9]: 11900 ng·h/mL
Cmax (200 mg/m2, Study A, plasma, single IV dose 200 mg/m^2, mean ± SD, read-out: Cmax): 9440 ± 991 ng/mL
half-life [9]: 40.2 ± 3 min
AUC [10]: 9630 ± 2670 ng·h/mL
Cmax (250 mg/m2, Study A, plasma, single IV dose 250 mg/m^2, mean ± SD, read-out: Cmax): 8610 ± 1060 ng/mL
half-life [10]: 34.2 ± 12.6 min
Cmax (plasma, abstract, after single IV doses 50–250 mg/m^2, read-out: maximum plasma concentration (Cmax), upper end of range): 9440 ± 991 ng/mL
